The text below walks through data of patent US6214992A (Hoechst Aktiengesellschaft, priority 1996, dated 2001).

In one assay the test system is C57BL/6 mice. Put plainly: endotoxin (LPS)-induced lethal shock, decrease in mortality. The class given is in vivo. Conditions: Mus musculus, ip, 48 h, read-out: Inhibition of mortality. On the procedure: For the testing of preparations for antishock action, various experimental animal models have been developed.
To carry out the experiments, a mixture of 10 ng of LPS from Salmonella abortus equi. and 7.5 mg of galactosamine in 0.2 ml of phosphate-buffered,physiological saline solution was administered to each animal by intravenous injection, which as a rule led to death within 6 to 9 hours. The test preparations were administered intraperitoneally one hour before LPS provocation at a dose of 100 mg/kg. The animals of the control group (n=10) instead of this received pure 0.9% saline solution as placebo. To assess the action of the preparation, the number of surviving animals was determined in the treated group (n=10) 48 hours after LPS administration and from this the percentage inhibition of mortality was determined with respect to the mortality in the control group.
`CCCn1c(=O)n(CCOC)c(=O)c2[nH]cnc21` [Compound 8]: the inhibition in vivo at 100 mg/kg worked out at 30%.
Same read-out and setting: in the case of `CCCn1c(=O)n(CCOCC)c(=O)c2[nH]cnc21` [Compound 23] it was 40%.

Staying with this assay, now noted: Mus musculus, ip; 100 mg/kg intraperitoneally one hour before LPS/galactosamine; survivors 48 hours after LPS; versus placebo control; read-out: Inhibition of mortality.
In the case of `COCn1c(=O)c2[nH]cnc2n(C)c1=O` [Compound 1, 1-Methoxymethyl-3-methylxanthine], the inhibition in vivo at 100 mg/kg was found to be 80%.
For the molecule `CCn1c(=O)n(COC)c(=O)c2[nH]cnc21` [Compound 2], the inhibition in vivo at 100 mg/kg stood at 30%.
On to `CCCCn1c(=O)n(COC)c(=O)c2[nH]cnc21` [Compound 4], for which the inhibition in vivo at 100 mg/kg was found to be 30%.
`CCOCn1c(=O)c2[nH]cnc2n(C)c1=O` [Compound 16]: the inhibition in vivo at 100 mg/kg turned out to be 100%.
The same measure, in the same setting: in the case of `CCOCn1c(=O)c2[nH]cnc2n(CC)c1=O` [Compound 17] it was 100%; in that of `CCOCCn1c(=O)c2[nH]cnc2n(C)c1=O` [Compound 21], 40%; in that of `CCCOCn1c(=O)c2[nH]cnc2n(C)c1=O` [Compound 26], 100%.
On the same count and under the same terms, in the case of `CCCOCn1c(=O)c2[nH]cnc2n(CC)c1=O` [Compound 27, 3-Ethyl-1-propoxymethylxanthine] it was 100%.
Same read-out and setting: with `CCCOCn1c(=O)c2[nH]cnc2n(C(C)C)c1=O` [Compound 29] the figure was 50%; with `CCCOCn1c(=O)c2[nH]cnc2n(CC(C)C)c1=O` [Compound 31, 3-Isobutyl-1-propoxymethylxanthine], 30%.
Consider `CCCOCn1c(=O)c2[nH]cnc2n(-c2ccccc2)c1=O` [Compound 32, 3-Phenyl-1-propoxymethylxanthine], for which the inhibition in vivo at 100 mg/kg was determined as 90%.
As to `CCCOCn1c(=O)c2[nH]cnc2n(CC2CC2)c1=O` [Compound 34, 3-Cyclopropylmethyl-1-propoxymethylxanthine], the inhibition in vivo at 100 mg/kg was 30%.
Same read-out and setting: in the case of `CCCOCCn1c(=O)c2[nH]cnc2n(C)c1=O` [Compound 35] it was 30%; in that of `CCCOCCn1c(=O)c2[nH]cnc2n(CCC)c1=O` [Compound 37, 1-(2-Propoxyethyl)-3-propylxanthine], 80%; in that of `CCCOCCn1c(=O)c2[nH]cnc2n(C2CC2)c1=O` [Compound 39], 30%.
Same read-out and setting: in the case of `CCCCOCn1c(=O)c2[nH]cnc2n(C)c1=O` [Compound 40] it was 40%; in that of `CCCCOCn1c(=O)c2[nH]cnc2n(CC)c1=O` [Compound 41], 40%; in that of `CCCCOCCn1c(=O)c2[nH]cnc2n(CC)c1=O` [Compound 44], 30%.
For the molecule `CC(C)COCn1c(=O)c2[nH]cnc2n(C)c1=O` [Compound 48, 1-Isobutoxymethyl-3-methylxanthine], the inhibition in vivo at 100 mg/kg came out at 40%.
`CC(C)COCn1c(=O)c2[nH]cnc2n(C2CC2)c1=O` [Compound 50]: the inhibition in vivo at 100 mg/kg worked out at 40%.
Turning to `CCC(C)OCn1c(=O)c2[nH]cnc2n(CC)c1=O` (stereo not drawn) [Compound 52, 1-sec-Butoxymethyl-3-ethylxanthine], the inhibition in vivo at 100 mg/kg was determined as 30%.
For the molecule `CCn1c(=O)n(COCCOC)c(=O)c2[nH]cnc21` [Compound 54], the inhibition in vivo at 100 mg/kg came to 30%.

For the next assay, the system named is rat.
Assay: not given
Conditions: comparable experimental conditions, J. Cereb. Blood Flow Metab. 1994, 14/1: 166-173; cited from earlier work.
On to `Cn1c(=O)c2[nH]cnc2n(C)c1=O` [theophylline, 1,3-dimethylxanthine], for which the “inhibition of ischemic nerve cell damage” value is recorded as “inhibits ischemic nerve cell damage neither”.

The next assay concerns Mongolian gerbils. Put plainly: transient global ischemia, CA1 hippocampus nerve cell damage. The assay is classed as in vivo, Mongolian gerbil. Conditions: Meriones unguiculatus, ip, 168 h; Dose 5 mg/kg intraperitoneally 30 minutes after 3-minute ischemia; histopathological score after 7 days versus untreated control; read-out: Inhibition of the neuronal CA1 hippocampus damage. The procedure:
To carry out the experiment, which took place according to the guidelines of the German Animal Protection Act, 30 male Mongolian gerbils having a body weight of between 60 and 70 g were randomly divided into two groups each containing 15 animals. The respective test substance was administered to the animals of the first group 30 minutes after the ischemia period by intraperitoneal injection, while the animals of the second group, which served as an untreated control group, only received the same volume of the vehicle concerned. To produce the temporary forebrain ischemia, the animals were fixed in the supine position to a heated operated table, and both common carotid arteries were carefully exposed and closed for 3 minutes by means of microaneurysm clips. 7 days after the 3-minute ischemia period, the animals were decapitated under halothane anesthesia, the brains were rapidly and carefully removed, first fixed by immersion in Carnoy's solution (ethanol/chloroform/acetic acid=6/3/1) and then embedded in paraffin. Subsequently 4 to 6 μm thick coronal sections through the hippocampus were prepared approximately at the height of the bregma and these were stained with hematoxylin and eosin. After this, the extent of eosinophilic necrosis of the pyramidal cells in the CA1 region of the hippocampus was determined by light microscopy in the course of a blind experiment by means of a semiquantitative histopathological score (0=none; 1=slight; 2=medium severe; 3=severe and 4=complete necroses). The assessment variable used for the neuroprotective action was the percentage change in the mean histopathological score of the preparation group compared to that of the untreated control group.
With `CCCOCn1c(=O)c2[nH]cnc2n(CC)c1=O` [Compound 27, 3-Ethyl-1-propoxymethylxanthine], the inhibition in vivo at 5 mg/kg was 40%.

The assay is the same for the next values; noted with them: Meriones unguiculatus, ip, 168 h; Dose 10 mg/kg intraperitoneally 30 minutes after 3-minute ischemia; histopathological score after 7 days versus untreated control; read-out: Inhibition of the neuronal CA1 hippocampus damage.
`COCn1c(=O)c2[nH]cnc2n(C2CC2)c1=O` [Compound 5]: the inhibition in vivo at 10 mg/kg worked out at 20%.
In the case of `COCCn1c(=O)c2[nH]cnc2n(C)c1=O` [Compound 6], the inhibition in vivo at 10 mg/kg was determined as 20%.
Consider `CCn1c(=O)n(CCOC)c(=O)c2[nH]cnc21` [Compound 7], for which the inhibition in vivo at 10 mg/kg turned out to be 33%.
For `CCOCn1c(=O)c2[nH]cnc2n(CC)c1=O` [Compound 17], the inhibition in vivo at 10 mg/kg amounted to 66%.
In the case of `CCCCn1c(=O)n(CCOCC)c(=O)c2[nH]cnc21` [Compound 24], the inhibition in vivo at 10 mg/kg worked out at 30%.
With `CCOCCn1c(=O)c2[nH]cnc2n(C2CC2)c1=O` [Compound 25], the inhibition in vivo at 10 mg/kg amounted to 24%.
In the case of `CCCOCn1c(=O)c2[nH]cnc2n(CC)c1=O` [Compound 27, 3-Ethyl-1-propoxymethylxanthine], the inhibition in vivo at 10 mg/kg amounted to 67%.
`CCCOCn1c(=O)c2[nH]cnc2n(CCC)c1=O` [Compound 28]: the inhibition in vivo at 10 mg/kg amounted to 30%.
On the same count and under the same terms, in the case of `CCCCn1c(=O)n(COCCC)c(=O)c2[nH]cnc21` [Compound 30] it was 24%; in that of `CCCOCCn1c(=O)c2[nH]cnc2n(CC)c1=O` [Compound 36], 23%; in that of `CCCOCCn1c(=O)c2[nH]cnc2n(C2CC2)c1=O` [Compound 39], 36%.
As for `CCCCOCCn1c(=O)c2[nH]cnc2n(CC)c1=O` [Compound 44], the inhibition in vivo at 10 mg/kg is 64%.
For `CCn1c(=O)n(COCCOC)c(=O)c2[nH]cnc21` [Compound 54], the inhibition in vivo at 10 mg/kg came to 36%.
The same measure, in the same setting: with `CCn1c(=O)n(COc2ccccc2)c(=O)c2[nH]cnc21` [Compound 58] the figure was 20%; with `CCn1c(=O)n(CCOc2ccccc2)c(=O)c2[nH]cnc21` [Compound 61], 23%.
As for `CCCCn1c(=O)n(CCOc2ccccc2)c(=O)c2[nH]cnc21` [Compound 63], the inhibition in vivo at 10 mg/kg was 27%.
For `CCn1c(=O)n(COc2ccc(Cl)cc2)c(=O)c2[nH]cnc21` [Compound 66], the inhibition in vivo at 10 mg/kg was determined as 23%.
For the molecule `CCn1c(=O)n(CCOC)c(=O)c2c1ncn2Cc1ccccc1` [Compound 77], the inhibition in vivo at 10 mg/kg came to 33%.
For `CCn1c(=O)n(CCCOC)c(=O)c2c1ncn2Cc1ccccc1` [Compound 82], the inhibition in vivo at 10 mg/kg came to 30%.
Turning to `CCCOCn1c(=O)c2c(ncn2Cc2ccccc2)n(C2CC2)c1=O` [Compound 103], the inhibition in vivo at 10 mg/kg is 32%.
On to `CCCCOCCn1c(=O)c2c(ncn2Cc2ccccc2)n(CC)c1=O` [Compound 114], for which the inhibition in vivo at 10 mg/kg was found to be 27%.

Another assay relates to Mongolian gerbils.
Assay: not given
The settings on record: gerbil, comparable experimental conditions; J. Cereb. Blood Flow Metab. 1987, 7/1: 74-81; cited from earlier work.
Take `Cn1c(=O)c2[nH]cnc2n(C)c1=O` [theophylline, 1,3-dimethylxanthine]: the “inhibition of ischemic nerve cell damage” value is reported as “inhibits ischemic nerve cell damage neither”.
